“And” between values parts separate entries of the source, which are not always exact repeats. Equal values may be shown once.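 Dose response: 5 concentrations. Exposure: 48 h. Format: 96-well plates. Endpoint: linear interpolation; highest concentration if not reached. Abbreviation: GI50, concentration required for 50% inhibition of growth. TGI denotes the concentration required for complete inhibition of growth.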

Test systems include M14 melanoma; SN12C renal; SF-295 CNS; ACHN renal; UACC-62 melanoma; UO-31 renal; HOP-92 NSCLC; MOLT-4 leukemia; DU-145 prostate; NCI/ADR-RES ovarian.
Common to all, as to assay: NCI tumour cell line growth inhibition, 48 h

`CC(=O)OCC1OC(n2c(=S)n(-c3ccccc3)c(=O)c3cc(Br)cc(Br)c32)C(OC(C)=O)C(OC(C)=O)C1OC(C)=O` (configuration not stated): the GI50 was 28.6 µM and > 100 µM in the assay with M14 melanoma; 11.7 µM and 60.3 µM in the assay on SF-295 CNS; > 100 µM and 42.9 µM with UO-31 renal; 15.3 µM and 46.9 µM in the assay with HOP-92 NSCLC; 36.8 µM in the assay with MOLT-4 leukemia. Besides, the TGI in the assay with M14 melanoma is above 100 µM; in the assay with SN12C renal, above 100 µM; with SF-295 CNS, 71.4 µM and > 100 µM; in the assay on ACHN renal it was above 100 µM; with UACC-62 melanoma, above 100 µM; in the assay with UO-31 renal it was above 100 µM. Further, the TGI in the assay on HOP-92 NSCLC was 63.3 µM and > 100 µM; in the assay on MOLT-4 leukemia, above 100 µM.
`O=C(/C=C(\[O-])c1ccccc1)CCCCCCC(=O)/C=C(\[O-])c1ccccc1.O=C(/C=C(\[O-])c1ccccc1)CCCCCCC(=O)/C=C(\[O-])c1ccccc1.O=C(/C=C(\[O-])c1ccccc1)CCCCCCC(=O)/C=C(\[O-])c1ccccc1.[Nd+3].[Nd+3]`: the GI50 is above 50 µM in the assay with M14 melanoma; above 50 µM in the assay with SN12C renal; 40.2 µM with SF-295 CNS; above 50 µM in the assay with ACHN renal; above 50 µM with UACC-62 melanoma; above 50 µM in the assay on UO-31 renal. For the same compound, the GI50 in the assay with HOP-92 NSCLC was 43.8 µM; with MOLT-4 leukemia it was 27.5 µM. The TGI in the assay on M14 melanoma, in the assay with SN12C renal, in the assay with SF-295 CNS, in the assay with ACHN renal, in the assay with UACC-62 melanoma and in the assay with UO-31 renal was above 50 µM each time. The TGI with HOP-92 NSCLC and with MOLT-4 leukemia was above 50 µM in each case.
As to `Cc1ccnc(Nc2ccc([N+](=O)[O-])c(NCCN3CCOCC3)n2)c1`, the TGI is 45.2 µM with M14 melanoma; above 100 µM in the assay with SN12C renal; 29.6 µM in the assay on SF-295 CNS; 40.8 µM in the assay on ACHN renal; 18.3 µM with UACC-62 melanoma; 30.7 µM with UO-31 renal. In addition, in the assay on MOLT-4 leukemia, the TGI was above 100 µM. For the same compound, the GI50 is 0.0425 µM and 0.048 µM in the assay with SN12C renal; 0.00693 µM and 0.0284 µM with DU-145 prostate; 0.00355 µM in the assay with SF-295 CNS; 0.00744 µM in the assay on ACHN renal; 0.00382 µM in the assay with UACC-62 melanoma; 0.0461 µM with UO-31 renal. Further, the GI50 was 0.00429 µM in the assay on NCI/ADR-RES ovarian; 0.0304 µM and 0.0356 µM in the assay with MOLT-4 leukemia.
As for `Nc1nc(=S)[nH]c(C(=O)Nc2nccs2)c1-c1ccccc1`, the TGI in the assay with M14 melanoma, with SN12C renal, with SF-295 CNS, in the assay on ACHN renal, with UACC-62 melanoma and in the assay on UO-31 renal was above 100 µM throughout. Besides, the TGI in the assay on HOP-92 NSCLC and in the assay with MOLT-4 leukemia was above 100 µM throughout.
As for `COc1cccc(C2C(C#N)=C(N)Oc3cc4c(cc32)OCO4)c1` (configuration not stated), the GI50 in the assay on M14 melanoma is 0.059 µM; in the assay on SN12C renal it was 0.0778 µM; with DU-145 prostate, 0.0845 µM; with SF-295 CNS, 0.035 µM; in the assay with ACHN renal, 2.26 µM; in the assay on UACC-62 melanoma it was 0.0505 µM. In addition, the GI50 with UO-31 renal is 0.169 µM; in the assay with NCI/ADR-RES ovarian it was 0.0299 µM; in the assay with MOLT-4 leukemia, 0.0745 µM. For the same compound, the TGI in the assay with M14 melanoma is 16.3 µM; with SN12C renal, above 46.2 µM; in the assay with DU-145 prostate, 2.78 µM; in the assay on SF-295 CNS, 22 µM; in the assay on ACHN renal it was above 100 µM; with UACC-62 melanoma it was above 53.8 µM. The figures for the TGI in the assay with UO-31 renal, in the assay on NCI/ADR-RES ovarian and in the assay with MOLT-4 leukemia were above 100 µM, 0.151 µM and 22.6 µM, respectively.
In the case of `CN(C)c1ccc(O[Si](Oc2ccc(N(C)C)cc2)(Oc2ccc(N(C)C)cc2)Oc2ccc(N(C)C)cc2)cc1`, the TGI in the assay on M14 melanoma, in the assay with SN12C renal, in the assay with SF-295 CNS, in the assay with ACHN renal, in the assay with UACC-62 melanoma and in the assay on UO-31 renal was above 100 µM in each case. Further, the TGI in the assay with HOP-92 NSCLC and in the assay with MOLT-4 leukemia was above 100 µM throughout.
`N#CCCN(CCC#N)c1ccc(C=Nc2ccc(F)cc2)cc1`: the TGI with M14 melanoma was above 100 µM; in the assay on SN12C renal, above 100 µM; in the assay with DU-145 prostate, above 100 µM; in the assay on SF-295 CNS, above 100 µM; in the assay with ACHN renal, above 100 µM; in the assay with UACC-62 melanoma, above 54.2 µM. Further, the TGI in the assay on UO-31 renal, with HOP-92 NSCLC and in the assay on MOLT-4 leukemia was above 100 µM throughout.
On to `c1cncc(C2ONC3=NCCN32)c1` (configuration not stated), for which the GI50 in the assay on M14 melanoma was 64.3 µM; with SN12C renal, 14.6 µM; in the assay on DU-145 prostate it was 15.8 µM; with SF-295 CNS, 33.3 µM; with ACHN renal it was 8 µM; in the assay on UACC-62 melanoma, 46.7 µM. Besides, the GI50 with UO-31 renal was 2.27 µM; with NCI/ADR-RES ovarian, 22.1 µM; in the assay with MOLT-4 leukemia, 28.4 µM. The TGI was above 100 µM in the assay on M14 melanoma; 31.7 µM in the assay on SN12C renal; above 100 µM in the assay on DU-145 prostate; above 100 µM with SF-295 CNS; 38.3 µM in the assay with ACHN renal; above 100 µM in the assay with UACC-62 melanoma. In addition, the figures for the TGI in the assay with UO-31 renal, in the assay on NCI/ADR-RES ovarian and with MOLT-4 leukemia were above 100 µM, 80.4 µM and 56.6 µM, respectively.
Turning to `Clc1ccc2c(NCCCN3CCN(c4nc(N5CCOCC5)nc5ccccc45)CC3)ccnc2c1`, the GI50 in the assay with M14 melanoma is 1.39 µM; with UACC-62 melanoma, 1.9 µM; in the assay with NCI/ADR-RES ovarian, 2.23 µM; with MOLT-4 leukemia, 1.36 µM. The TGI in the assay on M14 melanoma was found to be 2.85 µM; with UACC-62 melanoma, 3.36 µM; in the assay with NCI/ADR-RES ovarian it was 4.73 µM; in the assay on MOLT-4 leukemia it was 3.9 µM.
`O=C(N/N=C/c1ccc(F)cc1)c1ccc(C(F)(F)F)nc1Nc1cccc(C(F)(F)F)c1`: the GI50 was 0.916 µM in the assay on M14 melanoma; 1.63 µM in the assay with SN12C renal; 0.444 µM in the assay on DU-145 prostate; 0.744 µM with SF-295 CNS; 1.66 µM in the assay with ACHN renal; 1.66 µM in the assay with UACC-62 melanoma. Besides, the GI50 was 2.14 µM in the assay on UO-31 renal, 1.28 µM with NCI/ADR-RES ovarian and 1.57 µM in the assay with MOLT-4 leukemia. In addition, the TGI with M14 melanoma worked out at 10.1 µM; in the assay with SN12C renal, 7.73 µM; with DU-145 prostate, 1.88 µM; in the assay on SF-295 CNS, 2.69 µM; in the assay with ACHN renal, 4.04 µM; in the assay with UACC-62 melanoma, 5.77 µM. Also, the TGI in the assay with UO-31 renal was 6.69 µM; in the assay with NCI/ADR-RES ovarian it was 6.58 µM; in the assay on MOLT-4 leukemia it was 5.5 µM.
Regarding `COC(=O)c1sc(=NC(=S)N2CCCCC2)sc1C(=O)OC`, the TGI in the assay with M14 melanoma, in the assay with SN12C renal, with ACHN renal, in the assay with UACC-62 melanoma, in the assay on UO-31 renal and in the assay with MOLT-4 leukemia was above 100 µM throughout.

(Values after PubChem BioAssay (NCI).)
